Assay results published in patent publication US20260191856A1 (priority 2022, published 2026).
Several values for one entry are separate records, joined by “and”; a condition that tells them apart may be missing. Equal values may be shown once. Entries after “also recorded” stand apart in the source; their conditions may differ. Read-outs that look alike come from different tables or passages of the source. Marks after values point to notes of the source that are not given here.

Experiments:
CB1 [1] = target: T1, CB1 (Homo sapiens, UniProt P21554); experiment: GTP turnover assay with CB1 and Gi1; type: biochemical; parameters: Purification of human full-length CB1 with an N-terminal FLAG and C-terminal hexahistidine tags; FLAG (N); hexahistidine (C); made in house; host or cells: insect cells (baculovirus, Expression Systems) for CB1; Trichoplusia ni for Gi
T1 sequence (P21554 whole entry): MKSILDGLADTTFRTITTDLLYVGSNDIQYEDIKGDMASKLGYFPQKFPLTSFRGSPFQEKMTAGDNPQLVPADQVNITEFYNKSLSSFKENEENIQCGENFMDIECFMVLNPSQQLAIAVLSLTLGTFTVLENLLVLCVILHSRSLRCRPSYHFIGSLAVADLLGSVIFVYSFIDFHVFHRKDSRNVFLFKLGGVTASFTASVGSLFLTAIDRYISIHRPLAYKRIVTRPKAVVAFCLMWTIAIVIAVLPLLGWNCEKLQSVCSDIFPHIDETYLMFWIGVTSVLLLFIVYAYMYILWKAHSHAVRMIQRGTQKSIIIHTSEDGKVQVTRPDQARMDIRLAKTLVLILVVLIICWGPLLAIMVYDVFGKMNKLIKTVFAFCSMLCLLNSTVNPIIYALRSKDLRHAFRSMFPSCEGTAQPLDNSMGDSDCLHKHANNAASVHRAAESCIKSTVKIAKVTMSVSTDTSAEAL

CB1 [2] = target: T1, CB1; experiment: 3H-SR141716A radioligand binding to CB1-containing membranes; parameters: made in house; host or cells: insect cell membranes (inferred from 'similar manner' to the Sf9 MOR membranes); conditions: compared with ZCZ
Procedure: CB1-containing membranes prepared in a similar manner to the μOR-containing membranes prepared above were diluted 1:2000 in 50 mM HEPES pH 7.4, 5 mM EDTA, 5 mM MgCl2, and 1% bovine serum albumin (BSA). 96-well plates precoated with blocking buffer (20 mM HEPES (pH 7.4), 100 mM NaCl, and 0.05% BSA) were used as reaction plates. For “competition” binding experiments, membranes were incubated with 6 nM ^3H-SR141716a (50.9 Ci/mmol; Perkin Elmer) and serially diluted allosteric modulators for 1 hour at room temperature with shaking. Following incubation, membranes were rapidly bound to double thick 90×120 mm glass fibre Printed Filtermat B filters (Perkin Elmer) presoaked in 0.33% (v/v) polyethylenimine and washed with cold binding buffer (20 mM HEPES pH 7.4, 100 mM NaCl) using a MicroBeta Filtermat-96 cell harvester (Perkin Elmer). ^3H-SR141716a bound membranes on Filtermats were measured with a MicroBeta counter (Perkin Elmer) after addition of MultiLex B/HS melt-on scintillator sheets (Perkin Elmer) and data values were plotted after normalizing total counts per minute to the highest and lowest values.

MOR [3] = target: T2, MOR (Mus musculus, UniProt P42866); type: biochemical; parameters: FLAG (N); hexa-histidine (C); made in house; host or cells: Spodoptera frugiperda (Sf9) for MOR; Trichoplusia ni for Gi
T2 sequence (P42866 whole entry): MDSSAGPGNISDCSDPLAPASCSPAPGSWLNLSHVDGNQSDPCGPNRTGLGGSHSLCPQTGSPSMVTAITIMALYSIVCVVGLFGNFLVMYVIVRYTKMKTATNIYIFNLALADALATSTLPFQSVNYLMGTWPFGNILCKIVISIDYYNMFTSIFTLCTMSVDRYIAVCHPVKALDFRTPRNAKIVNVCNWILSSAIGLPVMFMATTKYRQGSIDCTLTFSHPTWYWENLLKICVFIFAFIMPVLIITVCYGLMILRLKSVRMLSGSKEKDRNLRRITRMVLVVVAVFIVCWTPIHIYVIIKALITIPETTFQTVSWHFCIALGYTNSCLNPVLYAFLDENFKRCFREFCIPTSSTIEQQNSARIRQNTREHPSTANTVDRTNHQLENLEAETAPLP

MOR [4] = target: T2, MOR; experiment: biochemical; type: binding; parameters: made in house; host or cells: Sf9 insect cell membranes (baculovirus)
male C57BL/6J mice [5] = experiment: Naloxone-precipitated opioid withdrawal assay
male C57BL/6J mice [6] = conditions: mouse, in vivo
male C57BL/6J mice [7] = experiment: Locomotor and respiration effects (CLAMS)
male C57BL/6J mice [8] = experiment: Conditioned place preference (CPP) assay; type: in vivo, mouse
MOR [9] = target: T3, MOR (Homo sapiens, UniProt P35372); type: cell-based
T3 construct: expressed in transfected cells; host or cells: HEK293T
T3 sequence (P35372 whole entry): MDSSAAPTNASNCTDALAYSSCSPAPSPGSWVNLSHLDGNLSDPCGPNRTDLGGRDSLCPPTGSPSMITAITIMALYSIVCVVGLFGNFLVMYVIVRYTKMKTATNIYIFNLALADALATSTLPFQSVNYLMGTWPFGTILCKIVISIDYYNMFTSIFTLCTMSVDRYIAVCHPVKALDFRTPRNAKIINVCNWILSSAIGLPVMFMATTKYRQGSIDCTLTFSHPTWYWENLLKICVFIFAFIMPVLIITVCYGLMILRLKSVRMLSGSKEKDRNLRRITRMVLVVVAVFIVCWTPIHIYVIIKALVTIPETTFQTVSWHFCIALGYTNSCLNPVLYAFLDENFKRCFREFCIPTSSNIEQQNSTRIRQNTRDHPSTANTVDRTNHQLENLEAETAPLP

in vivo = conditions: male, C57BL/6J, mouse, iv, 10 mg/kg
MOR [10] = target: T3, MOR; experiment: TRUPATH subtype selectivity, MOR/DAMGO; type: cell-based; conditions: compound A3 up to 30 μM
κOR = target: T4, κOR (Homo sapiens, UniProt P41145); experiment: TRUPATH subtype selectivity, κOR/U50488; type: cell-based; conditions: compound A3 up to 30 μM
T4 construct: expressed in transfected cells; host or cells: HEK293T (method is written for MOR)
T4 sequence (P41145 whole entry): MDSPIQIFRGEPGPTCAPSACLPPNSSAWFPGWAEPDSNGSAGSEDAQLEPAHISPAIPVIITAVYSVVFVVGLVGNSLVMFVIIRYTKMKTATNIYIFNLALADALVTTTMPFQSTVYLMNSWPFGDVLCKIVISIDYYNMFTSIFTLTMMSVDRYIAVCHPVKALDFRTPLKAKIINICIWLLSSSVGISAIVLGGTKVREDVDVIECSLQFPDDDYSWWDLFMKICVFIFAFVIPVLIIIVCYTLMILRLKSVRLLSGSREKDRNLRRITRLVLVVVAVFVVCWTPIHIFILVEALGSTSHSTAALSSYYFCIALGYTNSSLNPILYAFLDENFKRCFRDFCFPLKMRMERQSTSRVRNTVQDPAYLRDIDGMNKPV

MOR [11] = target: T3, MOR; type: cell-based; remark: listed apart in the source
δOR = target: T5, δOR (Homo sapiens, UniProt P41143); experiment: TRUPATH subtype selectivity, δOR/DPDPE; type: cell-based; conditions: compound A3 up to 30 μM
T5 construct: expressed in transfected cells; host or cells: HEK293T (method is written for MOR)
T5 sequence (P41143 whole entry): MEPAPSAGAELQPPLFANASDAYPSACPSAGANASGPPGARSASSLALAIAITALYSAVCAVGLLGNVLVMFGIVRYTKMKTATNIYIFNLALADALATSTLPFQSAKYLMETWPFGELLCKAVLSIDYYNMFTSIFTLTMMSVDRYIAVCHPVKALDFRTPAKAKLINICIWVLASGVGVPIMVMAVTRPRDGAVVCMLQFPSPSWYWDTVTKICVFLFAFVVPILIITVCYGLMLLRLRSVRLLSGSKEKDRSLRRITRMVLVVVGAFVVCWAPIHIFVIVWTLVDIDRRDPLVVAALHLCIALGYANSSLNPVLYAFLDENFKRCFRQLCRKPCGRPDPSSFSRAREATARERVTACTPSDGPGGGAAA

[12] = male, C57BL/6J, mouse, in vivo, iv, 10 mg/kg
[13] = Condition 1 saline + NAL (10 mg/kg)
[14] = Condition 2 morphine + NAL (10 mg/kg)
[15] = Condition 3 morphine + low NAL (0.1 mg/kg)
[16] = Condition 3 morphine + low NAL (0.1 mg/kg), listed as NAL
[17] = Condition 4 morphine + compound A3 (100 mg/kg) + low NAL (0.1 mg/kg)
[18] = compound A3 1-100 mg/kg + naloxone 0.1 mg/kg, maximal at 100 mg/kg

SMILES: CNC(=O)c1nc2ccc(N3CC(N)C3)nn2c1-c1ccc(OCc2ccccc2)c(F)c1 [Compound A4]
- effect on Gi1 GTP turnover, AEA-bound CB1 (CB1 [1]; AEA): not AEA-bound CB1
- effect on Gi1 GTP turnover, FUB-bound CB1 (CB1 [1]; FUB (MDMB-Fubinaca)): enhance FUB-induced Gi turnover; also recorded: specifically able to increase turnover for FUB-bound CB1
- effect on 3H-SR141716A antagonist binding (CB1 [2]): binds CB1 and decreases antagonist affinity though with lower potency than the known PAM, ZCZ

SMILES: CNC(=O)[C@H](Cc1ccc(C#N)cc1)NCc1csc(-c2cccc(-c3ccc4cc(N)ccc4c3)c2)n1 [Compound A1]
- GTP turnover in the absence of orthosteric ligand (MOR [3]): can induce GTP turnover to similar levels observed for the full agonist DAMGO
- effect on met-enkephalin induced activation of G protein (GTP turnover) (MOR [3]): enhance met-enkephalin induced activation of G protein
- efficacy of modulation of met-enkephalin-induced GTP turnover (MOR [3]): more efficacious at improving GTP turnover compared to A2; also recorded: highly effective at enhancing activity, fully depleting nucleotide under these conditions
- potency in GTP turnover assay (MOR [3]): low double-digit micromolar
- decrease in naloxone affinity for the receptor (MOR [4]; in the presence of A1): ~ 6 fold
- effect on binding of 3H-naloxone (MOR [4]; increasing amounts of compound, MOR-expressing membranes): decrease binding of ^3H-naloxone to MOR-expressing membranes

SMILES: C=CCN1CC[C@]23c4c5ccc(O)c4O[C@H]2C(=O)CC[C@@]3(O)[C@H]1C5 [Naloxone]
- Forepaw Tremor, Avg (male C57BL/6J mice [5]; [13]): 26.7
- Jumping Frequency, Avg (male C57BL/6J mice [5]; [13]): 2.7
- Rearing Frequency, Avg (male C57BL/6J mice [5]; [13]): 23.5
- Stool Consistency, Avg (male C57BL/6J mice [5]; [13]): 1.6
- Straightening, Avg (male C57BL/6J mice [5]; [13]): 0.1
- Teeth Chattering Frequency, Avg (male C57BL/6J mice [5]; [13]): 1
- Forepaw Tremor, Avg (male C57BL/6J mice [5]; [14]): 26.7
- Jumping Frequency, Avg (male C57BL/6J mice [5]; [14]): 76.9*
- Rearing Frequency, Avg (male C57BL/6J mice [5]; [14]): 2.64*
- Stool Consistency, Avg (male C57BL/6J mice [5]; [14]): precipitates significant diarrhea
- Straightening, Avg (male C57BL/6J mice [5]; [14]): 0.55
- Teeth Chattering Frequency, Avg (male C57BL/6J mice [5]; [14]): 54.2*
- Stool Consistency, Avg (male C57BL/6J mice [5]; Condition 2 morphine + NAL (10 mg/kg), listed as NAL): 7.46*
- Forepaw Tremor, Avg (male C57BL/6J mice [5]; [15]): 7.3
- Jumping Frequency, Avg (male C57BL/6J mice [5]; [15]): caused significant withdrawal symptoms
- Rearing Frequency, Avg (male C57BL/6J mice [5]; [15]): 22.2
- Stool Consistency, Avg (male C57BL/6J mice [5]; [15]): precipitates significant diarrhea
- Straightening, Avg (male C57BL/6J mice [5]; [15]): 3.1
- Teeth Chattering Frequency, Avg (male C57BL/6J mice [5]; [15]): had no effect relative to saline alone
- Jumping Frequency, Avg (male C57BL/6J mice [5]; [16]): 45.4*†
- Stool Consistency, Avg (male C57BL/6J mice [5]; [16]): 9.3*
- Teeth Chattering Frequency, Avg (male C57BL/6J mice [5]; [16]): 0.7+
- antagonism of morphine-induced antinociception by low-dose naloxone alone (male C57BL/6J mice [6]): no significant antagonism
- effect of low-dose naloxone pretreatment on morphine-induced hyperlocomotion (male C57BL/6J mice [7]; naloxone 0.1 mg/kg): ineffective in ameliorating morphine-induced hyperlocomotion
- effect of low-dose naloxone pretreatment on morphine-induced respiratory depression (male C57BL/6J mice [7]; naloxone 0.1 mg/kg): observed to reduce morphine-induced respiratory depression
- morphine CPP after vehicle and low-dose naloxone (male C57BL/6J mice [8]; vehicle (−30 min) + naloxone 0.1 mg/kg s.c. (−15 min)): did not prevent significant morphine CPP

SMILES: CNC(=O)[C@H](Cc1ccc(C)c(OC)c1)NC(=O)CSc1ccc2ccccc2c1-c1cncc(OCc2ccccc2)c1 [Compound B1, (S)-2-(2-((1-(5-(benzyloxy)pyridin-3-yl)naphthalen-2-yl)thio)acetamido)-3-(3-methoxy-4-methylphenyl)-N-methylpropanamide]
- potency of B1 relative to B2, GTP turnover assays (MOR [3]): ≥ 100
- potency of B1 relative to B2, 3H-naloxone results (MOR [4]; FIG. 5A): ≥ 100 fold

SMILES: CNC(=O)C(Cc1ccc(C)c(OC)c1)NC(=O)CSc1ccc2ccccc2c1-c1cncc(OCc2ccccc2)c1 (racemic) [Compound A3, 2-(2-((1-(5-(benzyloxy)pyridin-3-yl)naphthalen-2-yl)thio)acetamido)-3-(3-methoxy-4-methylphenyl)-N-methylpropanamide]
- GTP turnover in the absence of orthosteric ligand (MOR [3]): inhibits turnover of the receptor in the absence of orthosteric ligand; also recorded: inhibited receptor-catalyzed GTP turnover in the absence of orthosteric ligands
- effect on met-enkephalin induced activation of G protein (GTP turnover) (MOR [3]): significantly inhibits met-enkephalin induced activation of Gi; also recorded: inhibited MOR/met-enkephalin induced activation of Gl
- efficacy of modulation of met-enkephalin-induced GTP turnover (MOR [3]): inhibiting GTP depletion to nearly the same levels as those observed for G in the absence of any receptor catalyst; also recorded: nearly eliminating receptor induced GTP turnover
- potency in GTP turnover assay (MOR [3]): single-digit μM range
- potency of A3 at inhibiting relative to A1 at enhancing MOR/met-enkephalin induced activation of G (MOR [3]): > 10 fold
- enhancement of observed potency of naloxone for inhibiting agonist-induced signaling (MOR [9]): 7.6
- Forepaw Licking Frequency, Avg (male C57BL/6J mice [5]; [17]): 0.6
- Forepaw Tremor, Avg (male C57BL/6J mice [5]; [17]): 1.6
- Rearing Frequency, Avg (male C57BL/6J mice [5]; [17]): 1.6*
- Straightening, Avg (male C57BL/6J mice [5]; [17]): 0.2
- Wet Dog shakes, Avg (male C57BL/6J mice [5]; [17]): 1.1
- magnitude of naloxone-precipitated withdrawal, combined low-dose naloxone/NAM treatment (male C57BL/6J mice [5]; compound A3 100 mg/kg s.c. + naloxone 0.1 mg/kg s.c., morphine-dependent mice): did not potentiate the magnitude of withdrawal caused by a low-dose of naloxone alone to the same levels of withdrawal symptoms as the conventional naloxone treatment
- EC50 (MOR [4]; EC50 of increased binding of 3H-naloxone, MOR-expressing membranes): 0.13 µM and 0.133 µM
- increase in 3H-naloxone affinity (MOR [4]; in the presence of excess A3): ~ 2.6 fold and 2.6 fold
- enhancement of observed on-rate of 3H-naloxone (MOR [4]; orthosteric site saturated with mitragynine pseudoindoxyl): > 10 fold
- half-life (in vivo): 44.4 min
- impact on morphine-induced antinociception, compound alone (male C57BL/6J mice [6]): no significant impact on morphine-induced antinociception
- inhibition of morphine-induced antinociception in the presence of low-dose naloxone (male C57BL/6J mice [6]): significantly inhibits morphine-induced antinociception in a dose-dependent manner
- median dose to potentiate low-dose naloxone antagonism of morphine antinociception (male C57BL/6J mice [6]): 1.15 (0.03-4.04) mg/kg, s.c.
- right-shift in DAMGO potency at the MOR (MOR [10]): 3.7 fold
- enhancement of low-dose naloxone inhibition of morphine-induced hyperlocomotion (male C57BL/6J mice [7]; [18]): significantly enhances low-dose naloxone inhibition of hyperlocomotion
- enhancement of low-dose naloxone inhibition of morphine-induced respiratory depression (male C57BL/6J mice [7]; [18]): significantly enhances low-dose naloxone inhibition
- ambulation or breathing rate, compound itself (male C57BL/6J mice [7]; compound A3 alone, relative to vehicle): does not change ambulation or breathing rate relative to vehicle administration
- effect at κOR activation by U50,488 (κOR): No effect is observed at KOR activation by U50,488
- morphine CPP after compound A3 and low-dose naloxone (male C57BL/6J mice [8]; compound A3 100 mg/kg sc (−30 min) + naloxone 0.1 mg/kg s.c.): morphine CPP was eliminated
- inhibition across Gi/o subtypes (MOR [11]): all Ci/o subtypes were inhibited nearly equally
- right-shift in DPDPE potency at δOR (δOR): caused a right-shift in DPDPE potency at SOR, though to a lesser extent
- brain penetration [12]: ~ 25 % of maximum plasma levels

SMILES: Cc1ccc2c(C(C[N+](=O)[O-])c3cccs3)c(-c3ccccc3)[nH]c2c1 (stereo not drawn) [ZCZ, reference compound]
- effect on Gi1 GTP turnover, AEA-bound CB1 (CB1 [1]): causes increased Gi1 turnover for both FUB and AEA, equally
- effect on Gi1 GTP turnover, FUB-bound CB1 (CB1 [1]): causes increased Gi1 turnover for both FUB and AEA, equally

SMILES: CN1CC[C@]23c4c5ccc(O)c4O[C@H]2[C@@H](O)C=C[C@H]3[C@H]1C5 [Morphine]
- ambulations (male C57BL/6J mice [7]; Morphine (20 mg/kg, s.c.)): significantly increased ambulations for over 140 min
- breathing rate (male C57BL/6J mice [7]; Morphine (20 mg/kg, s.c.)): decreased breathing rate through 100 min
